The values that follow come from patent publication US10233415B1, “Microfluidics cell culture device” (The Regents of the University of California, priority 2013, dated 2019).

Where two headings read alike, the source gives them in different places.

The test system of assay [1] is hiPSC-CM derived cardiac tissue (WTC CMs) in the cardiac MPS. Briefly: Cardiac MPS beat rate (motion tracking) drug response. In kind it is cell-based, human. Conditions: for effect on beats per minute (BPM): dose response. The text has this: A cardiac MPS that incorporates an in vitro 3D model of the human myocardium consisting of aligned CMs derived from hiPS cells was designed, fabricated and characterized with various in and ex situ monitoring tools. […] To characterize the functionality of the cardiac model, a motion tracking method capable of massive parallelization and high throughput analysis based on bright field microscopy as well as a custom made MEA enabling electrophysiological measurements inside the MPS was developed.
As an alternative to MEAs, a computational motion tracking method capable of performing high throughput analysis was developed. The computational motion tracking method analyzed the beating motion of cardiac tissue based on simple bright field movies (FIGS. 6A-C).
Drugs from classes that target a different physiological effect (i.e. ion channel, stimulant) were chosen, and the IC50 or EC50 values were determined.

The subject of assay [2] is LQT3 hiPSC-CM derived cardiac tissue in the MPS. Briefly: LQT3 cardiac tissue in the MPS, beat frequency response. It counts as cell-based, human. As to the method: When fed continuously the tissue remained viable and functional for more than one month. Healthy and LQTS hiPSC-CM-derived cardiac tissue in the MPS were viable and amenable to continuous monitoring (e.g., MEA) and sampling for over 4 weeks. Beating tissues were created and loaded from multiple iPS cell lines, a disease cell line (LQT3), and the GCaMP6 isogenic reporter cell line.
FIG. 7. […] (B) Time dependent effect of 1 μM Isoproterenol (ISO) on bpm. * p<0.05 vs baseline.

The test system of assay [3] is adult human slice. The conditions noted are these: adult human slice contractility; read-out: EC50 for the effect on adult human slice contractility; cited from earlier work.

With `Cc1cccc(CCN2CCC(C(=O)c3ccc(NS(C)(=O)=O)cc3)CC2)n1` [E-4031], the IC50 in assay [1] (cardiac MPS, beat rate, read-out: IC50, dose dependent decrease of beat rate / beats per minute) was 392 nM.
In the case of `CC(C)NCC(O)c1ccc(O)c(O)c1` (stereo not drawn) [Isoproterenol], the beat frequency entry in assay [2] (100 nM concentration) is on record as “no effect”; in assay [2] (10 min exposure to 1 μM) it was “approximately doubled”. Further, the EC50 in assay [3] is 100 to 200 nM; in assay [1] (Homo sapiens, cardiac MPS, beat rate, read-out: EC50, concentration dependent increase on absolute beating (beats per minute)), 315 nM. The “effect on beats per minute (BPM)” value in assay [1] (cardiac MPS) is recorded as “dose-dependent increase”. Moreover, the beat rate entry in assay [1] (subsequent exposure to 1 μM, same device, after at least 48 hours wash) is reported as “increased the beat rate”.
On to `COCCc1ccc(OCC(O)CNC(C)C)cc1` (stereo not drawn) [Metoprolol], for which, in assay [1] (Homo sapiens, cardiac MPS, beat rate, read-out: IC50, dose dependent decrease of beat rate), the IC50 was determined as 244000 nM.
In the case of `COc1ccc(CCN(C)CCCC(C#N)(c2ccc(OC)c(OC)c2)C(C)C)cc1OC` (stereo not drawn) [Verapamil], the IC50 in assay [1] (Homo sapiens, read-out: IC50, dose dependent decrease of beat rate / beats per minute) came out at 950 nM. Besides, in assay [1] (at high doses), the spontaneous beating result is given as “abolished spontaneous beating”. Besides, in assay [1] (cardiac MPS), the “effect on beats per minute (BPM)” value was “dose-dependent decrease”. Moreover, in assay [1] (exposure to 1 nM, multiple exposures on the same device), the beat rate result is reported as “decreased the beat rate”.
